According to publication PMC8392382, “Flavonoids as Human Intestinal α-Glucosidase Inhibitors” (Foods, 2021):
Marks after values point to notes of the source that are not given here.

Assays:
[1] = test system: human maltase; assay: Maltase inhibition in Caco-2/TC7 cell-free extract, maltose as substrate, HPAE-PAD; type: biochemical; details: for IC50 / 15% inhibitory concentration (IC15) Maltase / 25% inhibitory concentration (IC25) Maltase: Caco-2/TC7 CFE, mean ± SEM, n = 3; for IC50: 20 mM maltose, 10 min 37 °C, read-out: 50% inhibitory concentration (IC50) Maltase; for 15% inhibitory concentration (IC15) Maltase / 25% inhibitory concentration (IC25) Maltase: maltose; for percent inhibition of maltase at maximum concentration tested: maximum concentration: acarbose 200, EGCG 1500, quercetin 200, quercetagetin 50, kaempferol 40, galangin 25 µM
Description: Disaccharides and monosaccharides were analyzed by HPAE-PAD on the Dionex™ Integrion™ HPIC™ system (Thermo Fisher Scientific). Separation of the carbohydrates was achieved on a CarboPac PA210 column (2 × 150 mm), preceded by a CarboPac PA210 Guard column (2 × 30 mm), with the column and compartment temperatures maintained at 30 °C and 20 °C, respectively. Eluent was generated using a Dionex™ EGC 500 KOH eluent generator cartridge with Dionex™ continuously regenerated-anion trap column 600, with eluent concentration following a multistep gradient: 12 mM for 12 min, 100 mM for 8 min and 12 mM for 12 min, at a flow rate of 0.2 mL/min and with a sample injection volume of 2.5 μL. Detection was performed using a gold working electrode and AgCl reference electrode at pH ~ 12.0, with a collection rate of 2.00 Hz using the “Gold, Carbo, Quad” waveform. The total run time per sample was 32 min, with 3 min allowed between analyses for sample injection by autosampler. A wash injection of only H2O while following the same multistep eluent gradient was performed at the end of every batch (12–14 samples). All injections were performed in duplicate and peak identification was achieved by comparing retention times to the standards. Dionex™ Chromeleon™ 7 Chromatography Data System, version 7.2.9 (Thermo Fisher Scientific, Waltham, MA, USA), was used to process the chromatograms, ensuring peaks were suitably integrated before recording peak area. Sugars were quantified from peak areas using standard curves, with the standards prepared in the same buffer as the samples.
(§1) To mimic intestinal digestion, an in vitro assay using Caco-2/TC7 cell extracts containing sucrase, maltase and isomaltase was conducted. Frozen cells were thawed, 1 mL ice-cold SPB added and then passed through a 21-G needle 15–20 times. The lysate was centrifuged at 14,000× g, 10 min at 4 °C and the supernatant containing cell-free extract (CFE) collected. Total protein concentration in the CFEs was determined by Bradford assay, using the Pierce Coomassie Bradford reagent and BSA standards (Thermo Fisher Scientific, Waltham, MA, USA).
(§2) Assay mixtures, total volume 250 µL, containing CFE (final protein concentration at 0.1–0.35 mg/mL), with or without various concentrations of inhibitors/flavonoids, were prepared and kept on ice. The enzyme reaction was initiated by the addition of ≥20 mM sucrose, maltose or isomaltose and immediately incubating in a 37 °C water bath for 10 min (or various time points during method setup and validation). Following incubation, the enzyme activity was terminated by incubating in a 96 °C water bath for a further 10 min. A positive control without any added inhibitor/flavonoid was simultaneously tested in each batch, and negative controls without enzymes or substrates were also assayed to evaluate the stability of the inhibitors/compounds. Samples were prepared for HPAE-PAD analysis as described in Section 2.3. Specific enzyme activities were determined (U/mg CFE protein) and expressed as a percentage of control enzyme activities accordingly.
Controls (CFE and substrate only) were prepared by replacing the volume of inhibitor with SPB. Activities of sucrase, maltase and isomaltase were considered as 100% (or 0% inhibition) in the absence of an inhibitor. […] Estimation of inhibition values were determined in GraphPad Prism and the percentage of inhibition of the sample was calculated following Equation (7) below, where SA = specific activity:(7) Inhibition %=SAcontrol − SAsample/SAcontrol×100
Enzyme assays were performed at least once for CFEs from biological triplicates, with duplicate injections of each analyzed by HPAE-PAD. MS Excel (Microsoft, Redmond, WA, USA) was used for data processing and analysis. Final inhibition values were expressed as the percentage of control activity (%). […]

[2] = target: T1, human isomaltase (Homo sapiens, UniProt P14410); assay: Isomaltase inhibition in Caco-2/TC7 cell-free extract, isomaltose as substrate, HPAE-PAD; type: biochemical; details: for 15% inhibitory concentration (IC15) Isomaltase / 25% inhibitory concentration (IC25) Isomaltase: isomaltose; for percent inhibition of isomaltase at maximum concentration tested: maximum concentration: acarbose 200, EGCG 1500, quercetin 200, quercetagetin 50, kaempferol 40, galangin 25 µM
T1 construct: an in vitro assay using Caco-2/TC7 cell extracts containing sucrase, maltase and isomaltase was conducted; endogenous in cells; host or cells: Caco-2/TC7 (human colon adenocarcinoma), 21 days post-confluence, crude cell-free extract
Description: (§3) Disaccharides and monosaccharides were analyzed by HPAE-PAD on the Dionex™ Integrion™ HPIC™ system (Thermo Fisher Scientific). Separation of the carbohydrates was achieved on a CarboPac PA210 column (2 × 150 mm), preceded by a CarboPac PA210 Guard column (2 × 30 mm), with the column and compartment temperatures maintained at 30 °C and 20 °C, respectively. […] Detection was performed using a gold working electrode and AgCl reference electrode at pH ~ 12.0, with a collection rate of 2.00 Hz using the “Gold, Carbo, Quad” waveform. […] A wash injection of only H2O while following the same multistep eluent gradient was performed at the end of every batch (12–14 samples). All injections were performed in duplicate and peak identification was achieved by comparing retention times to the standards. Dionex™ Chromeleon™ 7 Chromatography Data System, version 7.2.9 (Thermo Fisher Scientific, Waltham, MA, USA), was used to process the chromatograms, ensuring peaks were suitably integrated before recording peak area. Sugars were quantified from peak areas using standard curves, with the standards prepared in the same buffer as the samples.
as §1, §2
(§4) Controls (CFE and substrate only) were prepared by replacing the volume of inhibitor with SPB. […] Estimation of inhibition values were determined in GraphPad Prism and the percentage of inhibition of the sample was calculated following Equation (7) below, where SA = specific activity:(7) Inhibition %=SAcontrol − SAsample/SAcontrol×100
(§5) Enzyme assays were performed at least once for CFEs from biological triplicates, with duplicate injections of each analyzed by HPAE-PAD. MS Excel (Microsoft, Redmond, WA, USA) was used for data processing and analysis. Final inhibition values were expressed as the percentage of control activity (%). The IC15, IC25 and IC50 values were calculated based on the plots created using GraphPad, using the dose-response inhibition (log (inhibitor) vs. normalized response—variable slope) model. The same software was used to determine the apparent Km and Vmax values under the enzyme–kinetic inhibition model, and for statistical analyses using non-parametric multiple comparisons tests. A difference was considered significant at p < 0.05 for all comparisons. All data are expressed as the mean ± SD or SEM, specified accordingly.

[3] = target: T2, human sucrase (Homo sapiens, UniProt P14410); assay: Sucrase inhibition in Caco-2/TC7 cell-free extract, sucrose as substrate, HPAE-PAD; type: biochemical; details: for 15% inhibitory concentration (IC15) Sucrase / 25% inhibitory concentration (IC25) Sucrase / IC50: Caco-2/TC7 CFE, mean ± SEM, n = 3; for 15% inhibitory concentration (IC15) Sucrase / 25% inhibitory concentration (IC25) Sucrase: sucrose; for IC50: 20 mM sucrose, 10 min 37 °C, read-out: 50% inhibitory concentration (IC50) Sucrase; for percent inhibition of sucrase at maximum concentration tested: maximum concentration: acarbose 200, EGCG 1500, quercetin 200, quercetagetin 50, kaempferol 40, galangin 25 µM
T2 construct: an in vitro assay using Caco-2/TC7 cell extracts containing sucrase, maltase and isomaltase was conducted; endogenous in cells; host or cells: Caco-2/TC7 (human colon adenocarcinoma), 21 days post-confluence, crude cell-free extract
Description: as §3, §1, §2, §4, §5

[4] = target: human maltase expressed in yeast; parameters: method as in PMID 32218677; details: cited from earlier work
[5] = test system: human maltase expressed in yeast; assay: Inhibition of human maltase expressed in yeast (literature); type: biochemical; details: compared with this paper and ref 30
[6] = test system: yeast α-glucosidase; parameters: method as in PMID 26212963, PMID 30245236, PMID 31007116, PMID 23137344; details: cited from earlier work
[7] = target: rat sucrase; details: cited from earlier work
[8] = parameters: method as in PMID 9414116; details: cited from earlier work
[9] = target: rat maltase; details: cited from earlier work
[10] = Caco-2/TC7 CFE, mean ± SEM, n = 3

T2 sequence (P14410 whole entry): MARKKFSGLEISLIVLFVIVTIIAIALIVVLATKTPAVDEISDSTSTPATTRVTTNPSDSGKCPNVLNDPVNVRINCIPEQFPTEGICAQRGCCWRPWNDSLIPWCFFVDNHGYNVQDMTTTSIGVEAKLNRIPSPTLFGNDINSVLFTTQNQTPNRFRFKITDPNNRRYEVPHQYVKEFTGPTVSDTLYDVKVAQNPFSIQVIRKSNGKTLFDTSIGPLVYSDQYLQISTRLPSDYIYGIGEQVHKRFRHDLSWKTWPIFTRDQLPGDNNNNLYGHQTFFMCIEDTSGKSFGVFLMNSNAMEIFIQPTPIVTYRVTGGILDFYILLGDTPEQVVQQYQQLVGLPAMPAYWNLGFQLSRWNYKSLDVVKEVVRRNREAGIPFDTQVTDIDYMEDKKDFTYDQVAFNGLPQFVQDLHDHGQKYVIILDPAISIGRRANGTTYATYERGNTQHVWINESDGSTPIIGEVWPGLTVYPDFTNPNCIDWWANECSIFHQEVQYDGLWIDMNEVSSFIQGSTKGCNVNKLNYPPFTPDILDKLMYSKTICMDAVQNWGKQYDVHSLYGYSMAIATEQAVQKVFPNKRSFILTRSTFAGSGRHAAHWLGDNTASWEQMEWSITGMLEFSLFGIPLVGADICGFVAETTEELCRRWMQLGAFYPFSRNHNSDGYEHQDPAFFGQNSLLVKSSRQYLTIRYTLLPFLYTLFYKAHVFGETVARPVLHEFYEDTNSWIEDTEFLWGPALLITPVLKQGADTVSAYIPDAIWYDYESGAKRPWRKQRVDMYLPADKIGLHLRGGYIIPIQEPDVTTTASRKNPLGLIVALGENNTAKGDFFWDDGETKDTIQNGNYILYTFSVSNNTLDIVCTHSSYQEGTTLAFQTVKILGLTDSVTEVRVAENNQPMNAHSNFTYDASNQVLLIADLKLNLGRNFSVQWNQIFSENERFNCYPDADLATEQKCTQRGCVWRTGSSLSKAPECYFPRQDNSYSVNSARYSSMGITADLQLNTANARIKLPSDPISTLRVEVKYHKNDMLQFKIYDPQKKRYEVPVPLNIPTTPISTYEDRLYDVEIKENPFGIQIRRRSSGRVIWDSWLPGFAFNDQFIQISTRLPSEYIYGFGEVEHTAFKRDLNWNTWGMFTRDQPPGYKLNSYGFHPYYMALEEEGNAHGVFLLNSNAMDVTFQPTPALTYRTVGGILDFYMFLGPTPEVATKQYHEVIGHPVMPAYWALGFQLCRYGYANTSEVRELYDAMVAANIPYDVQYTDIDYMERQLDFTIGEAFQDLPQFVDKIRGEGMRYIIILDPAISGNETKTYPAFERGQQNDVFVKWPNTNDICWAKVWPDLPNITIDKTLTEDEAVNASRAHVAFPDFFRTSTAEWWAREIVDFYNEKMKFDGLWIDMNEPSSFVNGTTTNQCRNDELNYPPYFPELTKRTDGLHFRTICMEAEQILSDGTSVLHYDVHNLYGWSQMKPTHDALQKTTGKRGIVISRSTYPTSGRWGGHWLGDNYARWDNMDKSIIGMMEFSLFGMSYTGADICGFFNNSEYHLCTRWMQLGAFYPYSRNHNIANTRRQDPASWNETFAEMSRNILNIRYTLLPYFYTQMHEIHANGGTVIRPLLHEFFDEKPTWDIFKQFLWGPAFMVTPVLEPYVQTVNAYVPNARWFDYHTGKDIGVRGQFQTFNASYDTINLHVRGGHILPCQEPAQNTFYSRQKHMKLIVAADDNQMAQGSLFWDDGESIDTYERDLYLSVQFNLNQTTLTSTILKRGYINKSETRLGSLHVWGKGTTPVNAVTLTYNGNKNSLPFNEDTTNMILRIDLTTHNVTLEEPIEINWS
T1 sequence (P14410 whole entry): as above

| SMILES | IC50 [1] | 15% inhibitory concentration (IC15) Maltase [1] | 25% inhibitory concentration (IC25) Maltase [1] | percent inhibition of maltase at maximum concentration tested [1] | 15% inhibitory concentration (IC15) Isomaltase [2, 10] | 25% inhibitory concentration (IC25) Isomaltase [2, 10] | percent inhibition of isomaltase at maximum concentration tested [2] | 15% inhibitory concentration (IC15) Sucrase [3] | 25% inhibitory concentration (IC25) Sucrase [3] | IC50 [3] | percent inhibition of sucrase at maximum concentration tested [3] | further results |
| --- | --- | --- | --- | --- | --- | --- | --- | --- | --- | --- | --- | --- |
| C[C@H]1O[C@H](O[C@H]2[C@H](O)[C@@H](O)[C@@H](O[C@H]3[C@H](O)[C@@H](O)C(O)O[C@@H]3CO)O[C@@H]2CO)[C@H](O)[C@@H](O)[C@@H]1N[C@H]1C=C(CO)[C@@H](O)[C@H](O)[C@H]1O (stereo partly drawn) [Acarbose, acarbose, reference compound] | 13.9 ± 2.3 µM | 2.4 ± 0.4 ^a µM | 4.6 ± 0.8 ^a µM | more than 50% | 7.8 ± 0.7 ^a µM | 14.4 ± 1.1 ^a µM | 96% | 0.32 ± 0.05 ^a µM | 0.60 ± 0.09 ^a µM |  |  |  |
| O=C(O[C@@H]1Cc2c(O)cc(O)cc2O[C@@H]1c1cc(O)c(O)c(O)c1)c1cc(O)c(O)c(O)c1 [EGCG, (−)-epigallocatechin-3-gallate, reference compound] | 186 ± 40.4 µM | 21.7 ± 4.5 ^c µM | 43.8 ± 9.2 ^b µM |  | 118.6 ± 18.0 ^b µM | 241.9 ± 40.4 ^b µM | 71% | 41.2 ± 6.0 ^d µM | 72.9 ± 10.3 ^d µM | 175 ± 60.1 µM | 100% | IC50 ([2]; Caco-2/TC7 CFE, 20 mM isomaltose, 10 min 37 °C, mean ± SEM, n = 3, read-out: 50% inhibitory concentration (IC50) Isomaltase): 462 ± 60.3 µM; IC50 [4]: 20 µM; fold lower IC50 (human maltase expressed in yeast) than with Caco-2/TC7 as the enzyme origin [5]: 8–10 fold |
| O=c1c(O)c(-c2ccccc2)oc2cc(O)cc(O)c12 [Galangin, galangin] |  | 8.7 ± 1.1 ^abc µM | 17.6 ± 2.2 ^a µM | ND (22%) | 9.3 ± 1.2 ^a µM |  |  | 12.7 ± 2.1 ^c µM | 20.8 ± 5.5 ^c µM |  |  | inhibition at 25 µM ([2]; read-out: percent inhibition of isomaltase at maximum concentration tested): 22%; inhibition at 25 µM ([3]; read-out: percent inhibition of sucrase at maximum concentration tested): 33% |
| O=c1c(O)c(-c2ccc(O)cc2)oc2cc(O)cc(O)c12 [Kaempferol, kaempferol] |  | 19.0 ± 5.5 ^bc µM |  | ND (25%) | 12.5 ± 3.7 ^a µM | 34.0 ± 8.4 ^a µM | ND (27%) | 14.2 ± 3.7 ^c µM | 30.3 ± 8.2 ^c µM |  | ND (31%) | percent inhibition of maltase at maximum concentration tested ([1]; listed as kaempferol): < 32%; percent inhibition of isomaltase at maximum concentration tested ([2]; listed as kaempferol): < 32%; yeast α-glucosidase inhibition [6]: 95%; percent inhibition of sucrase at maximum concentration tested ([3]; listed as kaempferol): < 32% |
| O=c1c(O)c(-c2ccc(O)c(O)c2)oc2cc(O)c(O)c(O)c12 [Quercetagetin, quercetagetin] |  | 3.4 ± 0.9 ^ab µM | 6.7 ± 1.5 ^a µM | ND (48%) | 5.9 ± 1.9 ^a µM | 20.3 ± 7.3 ^a µM | ND (29%) | 3.5 ± 1.1 ^b µM | 6.6 ± 1.8 ^b µM | 21.7 ± 5.3 µM | > 50% |  |
| O=c1c(O)c(-c2ccc(O)c(O)c2)oc2cc(O)cc(O)c12 [Quercetin, quercetin] |  | 43.0 ± 3.1 ^d µM | 82.0 ± 4.6 ^c µM |  | 104.0 ± 18.8 ^b µM |  | ND (18%) | 40.5 ± 5.1 ^d µM | 69.5 ± 8.2 ^d µM | 162 ± 13.6 µM | > 50% | IC50 [7]: > 400 µM; half-life [8]: ~ 24 h; IC50 [9]: 281 µM |
